Data from US12138267B2, “Methods of treating respiratory depression modulated by a non-opioid agent” (Enalare Therapeutics Inc., priority 2021, dated 2024).
“Also recorded” adds a separate entry of the source. Read-outs that look alike come from different tables or passages of the source.

Assays:
healthy participants [1] = tested on: healthy participants
healthy participants [2] = test: Sedation (BIS), cardiovascular response and arterial blood gases; type: in vivo, human; details: versus placebo
[3] = Pharmacokinetics of Compound A, plasma concentrations after IV infusion; type: in vivo, human; details: for AUC(0-inf) / AUC(0-t) / clearance / Cmax / half-life / Tmax: both sexes, human, plasma, intravenous
Method: (§1) Subjects underwent 3 separate treatment periods. […] PD will be unblinded for treatment but not subject. […] Participant Disposition
Pharmacokinetic samples were measured up to 24 hours after the start of the IV infusion. […] Therefore, a fast decrease in concentration was observed, followed by a slow […].

healthy participants [4] = test: Safety and tolerability; type: in vivo, human
Text: as §1
Moreover, the only participant who developed phlebitis received placebo. […] No clinically meaningful differences between treatments were identified in any other safety parameter.

healthy participants [5] = details: cited from earlier work
[6] = Compound A (dose not given; third treatment), first hypoxic measurement under hypercapnic conditions, without propofol
[7] = Compound A (dose not given; third treatment), hypoxic/hypercapnic measurement during propofol high dose
[8] = Compound A low dose, first hypoxic measurement under hypercapnic conditions, without propofol
[9] = Compound A low dose, hypoxic/hypercapnic measurement during propofol high dose

CCCNc1nc(NCCC)nc(N(C)OC)n1 [Compound A]
Minute ventilation during hypoxic measurement (healthy participants [1]; [6]): 38.8 L/min | Minute ventilation, pre-hypoxic baseline (healthy participants [1]; [6]): 8.5 L/min | Minute ventilation during hypoxic measurement (healthy participants [1]; [7]): 27.4 L/min | Minute ventilation, pre-hypoxic baseline (healthy participants [1]; [7]): 8.4 L/min | ETCO2 difference prior to each hypoxic measurement (healthy participants [1]; Compound A high dose compared to placebo and low dose): approximately 3 mmHg | Increase in minute ventilation induced by hypercapnia (healthy participants [1]; Compound A high dose group, during high dose propofol): more pronounced | Respiratory rate at pre-hypoxic timepoints (healthy participants [1]; Compound A high dose, during propofol infusion): difference between Compound A high dose compared to placebo and Compound A low dose could be observed | ETCO2 compared to placebo (healthy participants [1]; Compound A low dose): comparable to placebo treatment | Hypoxic Sensitivity, First LSM of contrast (healthy participants [1]; Compound A low dose (2 mg/kg/h 10 min then 0.4 mg/kg/h 260 min IV)): 0.747 L/min/% | Minute ventilation during hypoxic measurement (healthy participants [1]; [8]): 30.3 L/min | Minute ventilation, pre-hypoxic baseline (healthy participants [1]; [8]): 8.1 L/min | Minute ventilation during hypoxic measurement (healthy participants [1]; [9]): 15.0 L/min | Minute ventilation, pre-hypoxic baseline (healthy participants [1]; [9]): 6.3 L/min | Hypoxic sensitivity compared to placebo (healthy participants [1]; both with and without co-administration of propofol): increased hypoxic sensitivity compared to placebo | Hypoxic Sensitivity, First LSM of contrast (healthy participants [1]; high dose (2 mg/kg/h 20 min then 1.1 mg/kg/h 250 min IV)): 1.179 L/min/% | Hypoxic Sensitivity, Estimate of the difference (healthy participants [1]; high dose minus placebo): 0.575 L/min/% | Hypoxic sensitivity during propofol (healthy participants [1]; in vivo, 1.1 mg/kg): remain similar to pre-propofol values | Hypoxic Sensitivity, Estimate of the difference (healthy participants [1]; low dose minus placebo): 0.144 L/min/% | Cardiovascular response (healthy participants [2]): No clinically meaningful difference on cardiovascular response | Level of propofol-induced sedation / arousal, BIS (healthy participants [2]; with clinically relevant doses of propofol): did not impact the level of the propofol-induced sedation; also recorded: did not lead to a significant difference in arousal compared to placebo | AUCinf Min ([3]; ENA-001 high dose, N 12): 6235 ng·h/mL | AUClast Max ([3]; ENA-001 high dose, N 12): 13169 ng·h/mL | AUClast Min ([3]; ENA-001 high dose, N 12): 6169 ng·h/mL | CL Max ([3]; ENA-001 high dose, N 12): 67.8 L/h | CL Min ([3]; ENA-001 high dose, N 12): 23.8 L/h | Cmax Min ([3]; ENA-001 high dose, N 12): 1090 ng/mL | Cmin Geometric Mean ([3]; ENA-001 high dose, N 12): 867.4 ng/mL | Cmin Max ([3]; ENA-001 high dose, N 12): 1230 ng/mL | Cmin Mean ([3]; ENA-001 high dose, N 12): 886.6 ng/mL | Cmin Median ([3]; ENA-001 high dose, N 12): 859 ng/mL | Cmin Min ([3]; ENA-001 high dose, N 12): 601 ng/mL | t1/2 Max ([3]; ENA-001 high dose, N 12): 8.40 h | t1/2 Min ([3]; ENA-001 high dose, N 12): 3.39 h | tmax Max ([3]; ENA-001 high dose, N 12): 4.50 h | tmax Min ([3]; ENA-001 high dose, N 12): 1.92 h | AUCinf Max ([3]; ENA-001 low dose, N 12): 3148 ng·h/mL | AUCinf Min ([3]; ENA-001 low dose, N 12): 2155 ng·h/mL | AUClast Max ([3]; ENA-001 low dose, N 12): 3059 ng·h/mL | AUClast Min ([3]; ENA-001 low dose, N 12): 2151 ng·h/mL | CL Max ([3]; ENA-001 low dose, N 12): 75.5 L/h | CL Min ([3]; ENA-001 low dose, N 12): 41.9 L/h | Cmax Max ([3]; ENA-001 low dose, N 12): 563 ng/mL | Cmax Min ([3]; ENA-001 low dose, N 12): 375 ng/mL | Cmin Geometric Mean ([3]; ENA-001 low dose, N 12): 299.6 ng/mL | Cmin Max ([3]; ENA-001 low dose, N 12): 379 ng/mL | Cmin Mean ([3]; ENA-001 low dose, N 12): 302.3 ng/mL | Cmin Median ([3]; ENA-001 low dose, N 12): 296 ng/mL | Cmin Min ([3]; ENA-001 low dose, N 12): 251 ng/mL | t1/2 Max ([3]; ENA-001 low dose, N 12): 6.99 h | t1/2 Min ([3]; ENA-001 low dose, N 12): 3.00 h | tmax Max ([3]; ENA-001 low dose, N 12): 4.50 h | tmax Min ([3]; ENA-001 low dose, N 12): 3.33 h | Plasma values at 24 hours post-dose ([3]; all participants, both dose levels): above the LLOQ | AUC(0-inf) ([3]; ENA-001 high dose, N 12, read-out: AUCinf Geometric Mean): 8440 ng·h/mL | AUC(0-inf) ([3]; ENA-001 high dose, N 12, read-out: AUCinf Mean): 8710 ng·h/mL | AUC(0-inf) ([3]; ENA-001 high dose, N 12, read-out: AUCinf Median): 7800 ng·h/mL | AUC(0-t) ([3]; ENA-001 high dose, N 12, read-out: AUClast Geometric Mean): 8240 ng·h/mL | AUC(0-t) ([3]; ENA-001 high dose, N 12, read-out: AUClast Mean): 8500 ng·h/mL | AUC(0-t) ([3]; ENA-001 high dose, N 12, read-out: AUClast Median): 7540 ng·h/mL | clearance ([3]; ENA-001 high dose, N 12, read-out: CL Geometric Mean (converted)): 735 mL/min | clearance ([3]; ENA-001 high dose, N 12, read-out: CL Mean (converted)): 756 mL/min | clearance ([3]; ENA-001 high dose, N 12, read-out: CL Median (converted)): 772 mL/min | Cmax ([3]; ENA-001 high dose, N 12, read-out: Cmax Geometric Mean): 1510 ng/mL | Cmax ([3]; ENA-001 high dose, N 12, read-out: Cmax Mean): 1560 ng/mL | Cmax ([3]; ENA-001 high dose, N 12, read-out: Cmax Median): 1520 ng/mL | half-life ([3]; ENA-001 high dose, N 12, read-out: t1/2 Geometric Mean (converted)): 5.49 h | half-life ([3]; ENA-001 high dose, N 12, read-out: t1/2 Mean (converted)): 5.64 h | half-life ([3]; ENA-001 high dose, N 12, read-out: t1/2 Median (converted)): 5.63 h | Tmax ([3]; ENA-001 high dose, N 12, read-out: tmax Geometric Mean): 3.84 h | Tmax ([3]; ENA-001 high dose, N 12, read-out: tmax Mean): 3.96 h | Tmax ([3]; ENA-001 high dose, N 12, read-out: tmax Median): 4.36 h | AUC(0-inf) ([3]; ENA-001 low dose, N 12, read-out: AUCinf Geometric Mean): 2660 ng·h/mL | AUC(0-inf) ([3]; ENA-001 low dose, N 12, read-out: AUCinf Mean): 2670 ng·h/mL | AUC(0-inf) ([3]; ENA-001 low dose, N 12, read-out: AUCinf Median): 2650 ng·h/mL | AUC(0-t) ([3]; ENA-001 low dose, N 12, read-out: AUClast Geometric Mean): 2610 ng·h/mL | AUC(0-t) ([3]; ENA-001 low dose, N 12, read-out: AUClast Mean): 2630 ng·h/mL | AUC(0-t) ([3]; ENA-001 low dose, N 12, read-out: AUClast Median): 2630 ng·h/mL | clearance ([3]; ENA-001 low dose, N 12, read-out: CL Geometric Mean (converted)): 918 mL/min | clearance ([3]; ENA-001 low dose, N 12, read-out: CL Mean (converted)): 929 mL/min | clearance ([3]; ENA-001 low dose, N 12, read-out: CL Median (converted)): 885 mL/min | Cmax ([3]; ENA-001 low dose, N 12, read-out: Cmax Geometric Mean): 463 ng/mL | Cmax ([3]; ENA-001 low dose, N 12, read-out: Cmax Mean): 468 ng/mL | Cmax ([3]; ENA-001 low dose, N 12, read-out: Cmax Median): 477 ng/mL | half-life ([3]; ENA-001 low dose, N 12, read-out: t1/2 Geometric Mean (converted)): 4.99 h | half-life ([3]; ENA-001 low dose, N 12, read-out: t1/2 Mean (converted)): 5.1 h | half-life ([3]; ENA-001 low dose, N 12, read-out: t1/2 Median (converted)): 5.05 h | Tmax ([3]; ENA-001 low dose, N 12, read-out: tmax Geometric Mean): 4.25 h | Tmax ([3]; ENA-001 low dose, N 12, read-out: tmax Mean): 4.26 h | Tmax ([3]; ENA-001 low dose, N 12, read-out: tmax Median): 4.33 h | AUC(0-inf) ([3]; high dose, read-out: highest individual AUCinf): 13800 ng·h/mL | Cmax ([3]; high dose, read-out: highest individual Cmax): 2600 ng/mL | AUC(0-inf) ([3]; high dose, read-out: mean (±SD) AUCinf): 8710 ± 2420 ng·h/mL | Cmax ([3]; high dose, read-out: mean (±SD) Cmax): 1560 ± 437 ng/mL | half-life ([3]; high dose, read-out: range of apparent terminal t1/2): 3.39 to 8.4 h | Tmax ([3]; high dose, read-out: tmax (mean peak concentrations)): 3.96 h | AUC(0-inf) ([3]; low dose, read-out: mean (±SD) AUCinf): 2670 ± 330 ng·h/mL | Cmax ([3]; low dose, read-out: mean (±SD) Cmax): 468 ± 68.2 ng/mL | half-life ([3]; low dose, read-out: range of apparent terminal t1/2): 3 to 6.99 h | Tmax ([3]; low dose, read-out: tmax (mean peak concentrations)): 4.26 h | Plasma concentration decline after infusion stop ([3]; from 4 hour 30 minutes onwards): bi-exponential decline | Average tmin ([3]; high dose): 1.133 h | Geometric mean Cav30-270 min (average arterial plasma concentration during 30-270 min) ([3]; high dose): 1161.69 ng/mL | Maximum concentration on average following IV infusion loading dose ([3]; high dose, 20 minutes loading dose 2.0 mg/kg/h): 1162.833 ng/mL | average Compound A concentration per propofol dosing interval ([3]; high dose, high propofol 200-270 min): 1412.28 ng/mL | average Compound A concentration per propofol dosing interval ([3]; high dose, low propofol 115-185 min): 1206.27 ng/mL | average Compound A concentration per propofol dosing interval ([3]; high dose, no propofol 30-100 min): 971.79 ng/mL | Effect of propofol on Compound A concentrations ([3]; in vivo): No apparent effect | Dose proportionality of PK ([3]; investigated dosing range, dose normalised AUC and Cav): Dose proportionality of PK over the investigated dosing range was apparent; also recorded: Dose proportionality of PK was apparent over the investigated dosing range; also recorded: showed dose proportionality over the investigated dosing range | Average tmin ([3]; low dose): 1.201 h | Geometric mean Cav30-270 min (average arterial plasma concentration during 30-270 min) ([3]; low dose): 366.40 ng/mL | Maximum concentration on average following IV infusion loading dose ([3]; low dose, 10 minutes loading dose 2.0 mg/kg/h): 857.000 ng/mL | average Compound A concentration per propofol dosing interval ([3]; low dose, high propofol 200-270 min): 427.54 ng/mL | average Compound A concentration per propofol dosing interval ([3]; low dose, low propofol 115-185 min): 359.75 ng/mL | average Compound A concentration per propofol dosing interval ([3]; low dose, no propofol 30-100 min): 323.41 ng/mL | Steady state ([3]; within the 260 and 250 minute infusions): steady-state concentrations were not reached; also recorded: did not reach steady state | Nausea probably related to treatment (healthy participants [4]; Compound A high dose, IV ondansetron pre-treatment): single occurrence of mild nausea | Treatment-related SAEs (healthy participants [4]; in vivo): No treatment-related SAEs | Trend in AEs (healthy participants [4]; in vivo): mild infusion site pain and related events | Safety and tolerability (healthy participants [4]; two dose levels, healthy participants): safe and well tolerated; also recorded: favourable safety and tolerability profiles | Ventilatory stimulation (healthy participants [5]; high dose (1.1 mg/kg/h), healthy participants, Roozekrans et al., 2014): clear ventilatory stimulation | Stimulatory effects on minute ventilation (healthy participants [5]; low dose (0.4 mg/kg/h), McLeod et al., 2014): no/minimal stimulatory effects on minute ventilation | Nausea in previous studies (healthy participants [5]; previous studies): nausea was associated with Compound A administration
